In ChEMBL document CHEMBL3632591, “Discovery and structural diversity of the hepatitis C virus NS3/4A serine protease inhibitor series leading to clinical candidate IDX320” (Bioorg Med Chem Lett, 2015):

How the values were obtained:
[1] = Inhibition of recombinant full length HCV genotype 1b NS3/4A protease by FRET assay; design: species or system Hepatitis C virus subtype 1b
Hepatitis C virus = assay: Antiviral activity against HCV genotype 1b infected in human HuH7 cells after 3 days by luciferase assay; type: functional, organism-based, Hepacivirus hominis; details: Huh-7, 72 h
[2] = Cytotoxicity against human HuH7 cells by colorimetric proliferation assay; type: cell-based, Huh-7
[3] = Intrinsic clearance in rat liver microsomes; type: ADME; details: read-out: CLH
[4] = Half life in rat liver microsomes; type: ADME
[5] = Intrinsic clearance in human liver microsomes; type: ADME; details: read-out: CLH
[6] = Intrinsic clearance in rat cryopreserved hepatocytes assessed per 10^6 cells; type: ADME, cell-based, Hepatocyte; details: read-out: CLH
[7] = Intrinsic clearance in monkey liver microsomes; type: ADME, Macaca mulatta; details: rhesus monkey, read-out: CLH
[8] = Clearance in Sprague-Dawley rat at 2 mg/kg, iv administered as single dose; type: ADME, organism-based; details: in vivo
[9] = Half life in Sprague-Dawley rat at 2 mg/kg, iv administered as single dose; type: ADME, organism-based; details: in vivo
[10] = AUC (infinity) in Sprague-Dawley rat at 10 mg/kg, po administered as single dose; type: ADME, organism-based; design: dose 10 mg/kg, time infinity, route oral; details: in vivo
[11] = Cmax in Sprague-Dawley rat plasma at 10 mg/kg, po administered as single dose measured after 24 hrs; type: ADME, organism-based; design: dose 10 mg/kg, route oral
[12] = AUCt in Sprague-Dawley rat at 2 mg/kg, iv administered as single dose; type: ADME, organism-based; details: in vivo
[13] = AUCt in Sprague-Dawley rat at 10 mg/kg, po administered as single dose; type: ADME, organism-based; details: in vivo
[14] = Half life in Sprague-Dawley rat at 10 mg/kg, po administered as single dose; type: ADME, organism-based; details: in vivo
[15] = Tmax in Sprague-Dawley rat at 10 mg/kg, po administered as single dose; type: ADME, organism-based; details: in vivo
[16] = Oral bioavailability in Sprague-Dawley rat at 10 mg/kg administered as single dose; type: ADME, organism-based; details: in vivo
[17] = AUC (infinity) in Sprague-Dawley rat at 2 mg/kg, iv administered as single dose; type: ADME, organism-based; design: dose 2 mg/kg, route intravenous, time infinity; details: in vivo
[18] = Cmax in Sprague-Dawley rat plasma at 2 mg/kg, iv administered as single dose measured after 8 hrs; type: ADME, organism-based; design: dose 2 mg/kg, route intravenous
[19] = Tmax in Sprague-Dawley rat at 2 mg/kg, iv administered as single dose; type: ADME, organism-based; details: in vivo

COc1ccc2c(O[C@H]3C[C@H]4C(=O)N(C)CCCC/C=C/[C@@H]5C[C@@]5(C(=O)NS(=O)(=O)C5(C)CC5)NC(=O)N4C3)cc(-c3nc(C(C)C)cs3)nc2c1
IC50 [1]: 0.0017 µM
EC50 (Hepatitis C virus): 0.508 µM
CC50 [2]: 42.7 µM

COc1ccc2c(O[C@H]3C[C@H]4C(=O)N(C)CCCC/C=C/[C@@H]5C[C@@]5(C(=O)NS(=O)(=O)C5(C)CC5)NC(=O)N4C3)cc(-c3nc(C(C)C)cs3)nc2c1C
microsomal CLint [3]: 12.6 µL/min/mg
half-life [4]: 1.87 h
microsomal CLint [5]: 9.8 µL/min/mg
IC50 [1]: 0.0018 µM
EC50 (Hepatitis C virus): 0.072 µM
CC50 [2]: > 75 µM
hepatocyte CLint [6]: 12.3 µL/min/1e6 cells
microsomal CLint [7]: 37.8 µL/min/mg

COc1ccc2c(O[C@H]3C[C@H]4C(=O)N(C)CCCC/C=C/[C@@H]5C[C@@]5(C(=O)NS(=O)(=O)C5(C)CC5)NC(=O)N4C3)cc(-c3nc(C(C)C)cs3)nc2c1F
IC50 [1]: 0.0035 µM
EC50 (Hepatitis C virus): 0.538 µM
CC50 [2]: 33.5 µM

COc1ccc2c(O[C@H]3C[C@H]4C(=O)N(C)CCCC/C=C/[C@@H]5C[C@@]5(C(=O)NS(=O)(=O)C5(C)CC5)NC(=O)N4C3)cc(-c3nc(C(C)C)cs3)nc2c1Cl
microsomal CLint [3]: 9.7 µL/min/mg
half-life [4]: 2.38 h
microsomal CLint [5]: 18.5 µL/min/mg
IC50 [1]: 0.0023 µM
EC50 (Hepatitis C virus): 0.056 µM
CC50 [2]: 48.5 µM
hepatocyte CLint [6]: 11.2 µL/min/1e6 cells
microsomal CLint [7]: 66.8 µL/min/mg

COc1cc2c(O[C@H]3C[C@H]4C(=O)N(C)CCCC/C=C/[C@@H]5C[C@@]5(C(=O)NS(=O)(=O)C5(C)CC5)NC(=O)N4C3)cc(-c3nc(C(C)C)cs3)nc2cc1Cl
IC50 [1]: 0.0086 µM
EC50 (Hepatitis C virus): 0.191 µM
CC50 [2]: > 75 µM

COc1ccc2c(O[C@H]3C[C@H]4C(=O)N(C)CCCC/C=C/[C@@H]5C[C@@]5(C(=O)NS(=O)(=O)C5(C)CC5)NC(=O)N4C3)cc(-c3nc(C(C)C)cs3)nc2c1Br
IC50 [1]: 0.0005 µM
EC50 (Hepatitis C virus): 0.029 µM
CC50 [2]: 51.2 µM

COc1ccc2c(O[C@H]3C[C@H]4C(=O)N(C)CCCC/C=C/[C@@H]5C[C@@]5(C(=O)NS(=O)(=O)C5(C)CC5)NC(=O)N4C3)cc(-c3nc(C(F)(F)F)cs3)nc2c1C
clearance [8]: 13.2 mL/min/kg
microsomal CLint [3]: 11.4 µL/min/mg
half-life [9]: 1.5 h
half-life [4]: 2.03 h
AUC(0-inf) [10]: 2380 ng·h/mL
Cmax [11]: 406 ng/mL
AUC(0-t) [12]: 2540 ng·h/mL
microsomal CLint [5]: 24 µL/min/mg
AUC(0-t) [13]: 2230 ng·h/mL
half-life [14]: 5.2 h
IC50 [1]: 0.0005 µM
Tmax [15]: 1 h
bioavailability [16]: 18%
EC50 (Hepatitis C virus): 0.013 µM
CC50 [2]: 75 µM
hepatocyte CLint [6]: 17.4 µL/min/1e6 cells
AUC(0-inf) [17]: 2570 ng·h/mL
microsomal CLint [7]: 46.7 µL/min/mg
Cmax [18]: 2670 ng/mL
Tmax [19]: 4.8 min

COc1ccc2c(O[C@H]3C[C@H]4C(=O)N(C)CCCC/C=C/[C@@H]5C[C@@]5(C(=O)NS(=O)(=O)C5CC5)NC(=O)N4C3)cc(-c3nc(C4CC4)cs3)nc2c1Cl
IC50 [1]: 0.001 µM
EC50 (Hepatitis C virus): 0.021 µM
CC50 [2]: 31.2 µM

COc1ccc2c(O[C@H]3C[C@H]4C(=O)N(C)CCCC/C=C/[C@@H]5C[C@@]5(C(=O)NS(=O)(=O)C5(C)CC5)NC(=O)N4C3)cc(-c3nc(C4CCC4)cs3)nc2c1Cl
IC50 [1]: 0.0013 µM
EC50 (Hepatitis C virus): 0.029 µM
CC50 [2]: 75 µM

COc1ccc2c(O[C@H]3C[C@H]4C(=O)N(C)CCCC/C=C/[C@@H]5C[C@@]5(C(=O)NS(=O)(=O)C5(C)CC5)NC(=O)N4C3)cc(-c3cc(C(C)C)on3)nc2c1Cl
IC50 [1]: 0.0037 µM
EC50 (Hepatitis C virus): 0.669 µM
CC50 [2]: 75 µM

COc1ccc2c(O[C@H]3C[C@H]4C(=O)N(C)CCCC/C=C/[C@@H]5C[C@@]5(C(=O)NS(=O)(=O)C5(C)CC5)NC(=O)N4C3)cc(-c3csc(C(C)C)n3)nc2c1Cl
IC50 [1]: 0.0008 µM
EC50 (Hepatitis C virus): 0.032 µM
CC50 [2]: 30.2 µM

COc1ccc2c(O[C@H]3C[C@H]4C(=O)N(C)CCCC/C=C/[C@@H]5C[C@@]5(C(=O)NS(=O)(=O)C5(C)CC5)NC(=O)N4C3)cc(-c3csc(C(F)(F)F)n3)nc2c1Cl
IC50 [1]: 0.001 µM
EC50 (Hepatitis C virus): 0.019 µM
CC50 [2]: 59 µM

COc1ccc2c(O[C@H]3C[C@H]4C(=O)N(C)CCCC/C=C/[C@@H]5C[C@@]5(C(=O)NS(=O)(=O)C5CC5)NC(=O)N4C3)cc(-c3csc(C(F)(F)F)n3)nc2c1C
microsomal CLint [3]: 23.7 µL/min/mg
half-life [4]: 0.983 h
microsomal CLint [5]: 27.1 µL/min/mg
IC50 [1]: 0.0009 µM
EC50 (Hepatitis C virus): 0.008 µM
CC50 [2]: 75 µM
hepatocyte CLint [6]: 30 µL/min/1e6 cells
microsomal CLint [7]: 39.9 µL/min/mg

COc1ccc2c(O[C@H]3C[C@H]4C(=O)N(C)CCCC/C=C/[C@@H]5C[C@@]5(C(=O)NS(=O)(=O)C5(C)CC5)NC(=O)N4C3)cc(-n3cc(C(C)C)cn3)nc2c1C
IC50 [1]: 0.0009 µM
EC50 (Hepatitis C virus): 0.065 µM
CC50 [2]: 9.61 µM

COc1ccc2c(O[C@H]3C[C@H]4C(=O)N(C)CCCC/C=C/[C@@H]5C[C@@]5(C(=O)NS(=O)(=O)C5(C)CC5)NC(=O)N4C3)cc(-n3cc(C(F)(F)F)cn3)nc2c1Cl
IC50 [1]: 0.0004 µM
EC50 (Hepatitis C virus): 0.027 µM
CC50 [2]: 21.9 µM

COc1ccc2c(O[C@H]3C[C@H]4C(=O)N(C)CCCC/C=C/[C@@H]5C[C@@]5(C(=O)NS(=O)(=O)C5(C)CC5)NC(=O)N4C3)cc(-n3cc(C(C)C)nn3)nc2c1Cl
IC50 [1]: 0.0073 µM
EC50 (Hepatitis C virus): 0.593 µM
CC50 [2]: 28.5 µM

COc1ccc2c(O[C@H]3C[C@H]4C(=O)N(C)CCCC/C=C/[C@@H]5C[C@@]5(C(=O)NS(=O)(=O)C5(C)CC5)NC(=O)N4C3)cc(C#N)nc2c1C
IC50 [1]: 0.0064 µM
EC50 (Hepatitis C virus): 0.499 µM
CC50 [2]: 55.8 µM

C#Cc1cccc(-c2cc(O[C@H]3C[C@H]4C(=O)N(C)CCCC/C=C/[C@@H]5C[C@@]5(C(=O)NS(=O)(=O)C5(C)CC5)NC(=O)N4C3)c3ccc(OC)c(C)c3n2)c1
IC50 [1]: 0.007 µM
EC50 (Hepatitis C virus): 0.085 µM
CC50 [2]: 75 µM

COc1ccc2c(O[C@H]3C[C@H]4C(=O)N(C)CCCC/C=C/[C@@H]5C[C@@]5(C(=O)NS(=O)(=O)C5CC5)NC(=O)N4C3)cc(-c3nc(C)cs3)nc2c1Cl
IC50 [1]: 0.001 µM
EC50 (Hepatitis C virus): 0.022 µM
CC50 [2]: 75 µM

COc1ccc2c(O[C@H]3C[C@H]4C(=O)N(C)CCCC/C=C/[C@@H]5C[C@@]5(C(=O)NS(=O)(=O)C5CC5)NC(=O)N4C3)cc(-c3noc(C)n3)nc2c1C
IC50 [1]: 0.0257 µM
EC50 (Hepatitis C virus): > 0.75 µM
CC50 [2]: 75 µM

C#Cc1csc(-c2cc(O[C@H]3C[C@H]4C(=O)N(C)CCCC/C=C/[C@@H]5C[C@@]5(C(=O)NS(=O)(=O)C5(C)CC5)NC(=O)N4C3)c3ccc(OC)c(Cl)c3n2)n1
IC50 [1]: 0.0005 µM
EC50 (Hepatitis C virus): 0.004 µM
CC50 [2]: 17 µM

C#Cc1csc(-c2cc(O[C@H]3C[C@H]4C(=O)N(C)CCCC/C=C/[C@@H]5C[C@@]5(C(=O)NS(=O)(=O)C5(C)CC5)NC(=O)N4C3)c3ccc(OC)c(C)c3n2)n1
IC50 [1]: 0.0009 µM
EC50 (Hepatitis C virus): 0.0027 µM
CC50 [2]: 75 µM

C#Cc1csc(-c2cc(O[C@H]3C[C@H]4C(=O)N(C)CCCC/C=C/[C@@H]5C[C@@]5(C(=O)NS(=O)(=O)C5CC5)NC(=O)N4C3)c3ccc(OC)c(C)c3n2)n1
IC50 [1]: 0.0009 µM
EC50 (Hepatitis C virus): 0.0028 µM
CC50 [2]: 14.4 µM

C=Cc1csc(-c2cc(O[C@H]3C[C@H]4C(=O)N(C)CCCC/C=C/[C@@H]5C[C@@]5(C(=O)NS(=O)(=O)C5(C)CC5)NC(=O)N4C3)c3ccc(OC)c(Cl)c3n2)n1
IC50 [1]: 0.0008 µM
EC50 (Hepatitis C virus): 0.004 µM
CC50 [2]: 57.1 µM

COc1ccc2c(O[C@H]3C[C@H]4C(=O)N(C)CCCC/C=C/[C@@H]5C[C@@]5(C(=O)NS(=O)(=O)C5(C)CC5)NC(=O)N4C3)cc(-c3nc(C#N)cs3)nc2c1Cl
IC50 [1]: 0.01 µM
EC50 (Hepatitis C virus): 0.089 µM
CC50 [2]: 75 µM

COc1ccc2c(OC[C@@H]3C[C@H]4C(=O)N(C)CCCC/C=C/[C@@H]5C[C@@]5(C(=O)NS(=O)(=O)C5(C)CC5)NC(=O)N34)cc(-c3nc(C(C)C)cs3)nc2c1C
microsomal CLint [3]: 364 µL/min/mg
half-life [4]: 0.0633 h
microsomal CLint [5]: 299 µL/min/mg
microsomal CLint [7]: 500 µL/min/mg

COc1ccc2c(OC[C@@H]3C[C@H]4C(=O)N(C)CCCC/C=C/[C@@H]5C[C@@]5(C(=O)NS(=O)(=O)C5(C)CC5)NC(=O)N34)cc(-c3nc(C(C)C)cs3)nc2c1Cl
microsomal CLint [3]: 182 µL/min/mg
half-life [4]: 0.133 h
microsomal CLint [5]: 472 µL/min/mg
microsomal CLint [7]: 500 µL/min/mg

C#Cc1csc(-c2cc(O[C@H]3CCN4C(=O)N(C)CCCC/C=C/[C@@H]5C[C@@]5(C(=O)NS(=O)(=O)C5(C)CC5)NC(=O)[C@@H]4C3)c3ccc(OC)c(C)c3n2)n1
IC50 [1]: 0.0006 µM
EC50 (Hepatitis C virus): 0.0002 µM
CC50 [2]: > 75 µM

COc1ccc2c(O[C@H]3CCN4C(=O)N(C)CCCC/C=C/[C@@H]5C[C@@]5(C(=O)NS(=O)(=O)C5CC5)NC(=O)[C@@H]4C3)cc(-c3nc(C(F)(F)F)cs3)nc2c1C
IC50 [1]: 0.0004 µM
EC50 (Hepatitis C virus): 0.0009 µM
CC50 [2]: > 75 µM
